Measurements published in patent US7575882B2, “Compositions and methods for identifying modulators of TRPV2” (Janssen Pharmaceutica N. V., priority 2005, dated 2009).

Legend:
rat TRPV2 = target: T1, rat TRPV2 (Rattus norvegicus, UniProt Q9WUD2, A713V/L151P/T158I); experiment: Whole-cell patch clamp, HEK293 cells stably expressing rat TRPV2; format: cell-based; conditions: 10 μM ruthenium red; 100 μM Δ^9-THC
T1 construct: A cDNA fragment encoding the full-length rat TRPV2 was subcloned into pCI-neo; expressed in transfected cells
T1 sequence (Q9WUD2 1-761 L151P/T158I/A713V): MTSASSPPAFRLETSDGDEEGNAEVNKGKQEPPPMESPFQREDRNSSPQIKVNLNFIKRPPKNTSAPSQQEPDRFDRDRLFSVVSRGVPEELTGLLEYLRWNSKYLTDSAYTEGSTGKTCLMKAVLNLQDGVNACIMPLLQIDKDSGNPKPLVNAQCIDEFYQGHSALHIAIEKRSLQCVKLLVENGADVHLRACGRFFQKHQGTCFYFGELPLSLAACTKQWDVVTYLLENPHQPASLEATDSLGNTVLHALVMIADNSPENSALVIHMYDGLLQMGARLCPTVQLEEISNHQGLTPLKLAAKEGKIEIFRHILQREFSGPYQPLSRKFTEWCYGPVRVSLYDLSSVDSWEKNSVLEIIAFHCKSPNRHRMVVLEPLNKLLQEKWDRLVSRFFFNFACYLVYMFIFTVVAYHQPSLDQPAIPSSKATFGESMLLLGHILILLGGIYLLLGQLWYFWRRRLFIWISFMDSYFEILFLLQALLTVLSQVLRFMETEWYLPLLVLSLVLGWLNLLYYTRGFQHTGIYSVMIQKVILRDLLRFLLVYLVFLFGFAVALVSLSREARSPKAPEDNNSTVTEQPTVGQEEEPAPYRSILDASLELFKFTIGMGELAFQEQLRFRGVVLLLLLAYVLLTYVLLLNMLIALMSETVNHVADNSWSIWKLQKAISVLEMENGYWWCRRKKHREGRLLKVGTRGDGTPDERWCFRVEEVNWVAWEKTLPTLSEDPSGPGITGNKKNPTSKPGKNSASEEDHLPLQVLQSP
Method: To further confirm the Δ^9-THC effect on TRPV2, whole-cell patch clamp studies were performed. The extracellular solution contained (in mM): NaCl, 132; CaCl, 1.8; KCl, 5.4; MgCl2, 0.8; HEPES, 10; glucose, 10; pH=7.4. The intracellular solution used to fill recording pipettes contained (in mM): CsCl, 145; EGTA, 5; HEPES, 10; glucose, 5; pH=7.4. Recordings were performed using the conventional whole-cell patch clamp technique, 2-3 days after transient transfection of human TRPV2 into HEK293 cell or 1-2 days after plating HEK293 cells stably expressing rat TRPV2 onto glass coverslips. Currents were amplified by a patch clamp amplifier and filtered at 2 kHz (Axopatch 200B), sampled at 10 kHz using Digidata 1322A and acquired and analyzed with pClamp 9.0 (all instruments from Molecular Devices, CA). A 600 ms voltage ramp was given once every five seconds from −100 mV to +60 mV. The holding potential between voltage ramps was −100 mV. Extracellular solutions were applied to the cell at 0.5 ml/min via a gravity-fed perfusion system. All experiments were performed at 22° C.

human TRPV2 = target: T2, human TRPV2 (Homo sapiens, UniProt Q9Y5S1); experiment: Whole-cell patch clamp, HEK293 cells transiently transfected with human TRPV2; format: cell-based; conditions: 10 μM ruthenium red; 100 μM Δ^9-THC
T2 construct: A cDNA fragment encoding the full-length human TRPV2 was subcloned into pCI-neo or pcDNA3; expressed in transfected cells; host or cells: HEK293, transient, pCI-neo or pcDNA3
T2 sequence (Q9Y5S1 1-764): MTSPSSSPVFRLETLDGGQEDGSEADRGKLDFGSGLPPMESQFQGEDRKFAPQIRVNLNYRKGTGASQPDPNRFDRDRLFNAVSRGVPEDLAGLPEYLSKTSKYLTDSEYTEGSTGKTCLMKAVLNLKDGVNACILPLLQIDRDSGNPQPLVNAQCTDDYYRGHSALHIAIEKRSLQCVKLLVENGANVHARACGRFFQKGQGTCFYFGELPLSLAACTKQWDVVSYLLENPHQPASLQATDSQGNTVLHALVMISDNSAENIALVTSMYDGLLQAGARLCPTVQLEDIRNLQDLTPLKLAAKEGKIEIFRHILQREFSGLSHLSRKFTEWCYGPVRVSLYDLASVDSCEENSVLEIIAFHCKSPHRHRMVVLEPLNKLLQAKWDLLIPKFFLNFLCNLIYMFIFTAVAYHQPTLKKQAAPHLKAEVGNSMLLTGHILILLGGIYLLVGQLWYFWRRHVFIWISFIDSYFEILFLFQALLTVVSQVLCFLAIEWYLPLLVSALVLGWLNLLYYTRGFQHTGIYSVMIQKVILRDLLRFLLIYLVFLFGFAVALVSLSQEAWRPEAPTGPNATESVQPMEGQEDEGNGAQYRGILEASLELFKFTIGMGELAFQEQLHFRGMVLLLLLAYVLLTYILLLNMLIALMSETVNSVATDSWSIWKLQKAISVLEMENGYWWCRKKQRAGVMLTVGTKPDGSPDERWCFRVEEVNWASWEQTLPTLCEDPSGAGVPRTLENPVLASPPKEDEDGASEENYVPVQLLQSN
Method: A cDNA fragment encoding the full-length human TRPV2 was subcloned into pCI-neo or pcDNA3 mammalian expression vectors. The expression constructs were then transfected into HEK293 cells with FuGene6 transfection reagent (Roche, Indianapolis, Ind.) according to vendor's protocol. TRPV2-expressing HEK293 cells were cultured in DMEM supplemented with 10% fetal bovine serum, 100 units/ml penicillin, and 100 μg/ml streptomycin for 48-72 hr and either evaluated for transient expression and/or activity, or dosed with 400 μg/ml G418 to select for stably-transfected TRPV2-expressing cell clones. Cells were maintained at 37° C. and in 5% CO2.
To further confirm the Δ^9-THC effect on TRPV2, whole-cell patch clamp studies were performed. The extracellular solution contained (in mM): NaCl, 132; CaCl, 1.8; KCl, 5.4; MgCl2, 0.8; HEPES, 10; glucose, 10; pH=7.4. The intracellular solution used to fill recording pipettes contained (in mM): CsCl, 145; EGTA, 5; HEPES, 10; glucose, 5; pH=7.4. […] Currents were amplified by a patch clamp amplifier and filtered at 2 kHz (Axopatch 200B), sampled at 10 kHz using Digidata 1322A and acquired and analyzed with pClamp 9.0 (all instruments from Molecular Devices, CA). […]

N.N.N.N.N.N.N.N.N.N.N.N.N.N.[Cl-].[Cl-].[Cl-].[Cl-].[Cl-].[Cl-].[O-2].[O-2].[Ru+3].[Ru+3].[Ru+4] [ruthenium red]
inhibition of Δ^9-THC-activated currents, rat TRPV2 (rat TRPV2): significantly inhibited | inhibition of Δ^9-THC-activated currents, human TRPV2 (human TRPV2): significantly inhibited
